# Measurements: patent publication US20170050957A1, “4-AMINO-6-(HETEROCYCLIC)PICOLINATES AND 6-AMINO-2-(HETEROCYCLIC)PYRIMIDINE-4-CARBOXYLATES AND THEIR USE AS HERBICIDES” (Dow AgroSciences LLC, priority 2013, published 2017)
# Where two headings read alike, the source gives them in different places.
# Assays:
# [1] = tested on: Key Grass and Sedge Weeds as well as Grass Crops; assay: Post-emergent Test II herbicidal activity (Table 16); assay type: in vivo; settings: post-emergence, 336 h, 14 d; for pest or weed control at 35 g/ha: 35 g ai/ha; for pest or weed control at 70 g/ha: 70 g ai/ha; for pest or weed control at 140 g/ha: 140 g ai/ha
# In short: (§1)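 Plants grown in greenhouse (~15 h photoperiod, 23-29 °C day, 22-28 °C night) to first or second true leaf stage, then sprayed post-emergence at 187 L/ha with a high rate and 1/2×, 1/4×, 1/8× and 1/16× dilutions. Injury scored visually after 14 d, 0-100% versus untreated plants.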
# [2] = tested on: Key Broadleaf Weed and Crop Species; assay: Post-emergent Test II herbicidal activity (Table 15); assay type: in vivo; settings: post-emergence, 336 h, 14 d; for pest or weed control at 35 g/ha: 35 g ai/ha; for pest or weed control at 70 g/ha: 70 g ai/ha; for pest or weed control at 140 g/ha: 140 g ai/ha
# In short: as §1
# [3] = Cyperus esculentus, yellow nutsedge (Cyperus esculentus), read-out: Visual Growth Reduction (%) 14 Days After Application, CYPES
# [4] = Echinochloa crus-galli, barnyardgrass (Echinochloa crus-galli), read-out: Visual Growth Reduction (%) 14 Days After Application, ECHCG
# [5] = Oryza sativa, rice (Oryza sativa), read-out: Visual Growth Reduction (%) 14 Days After Application, ORYSA
# [6] = Setaria faberi, giant foxtail (Setaria faberi), read-out: Visual Growth Reduction (%) 14 Days After Application, SETFA
# [7] = Triticum aestivum, wheat, spring (Triticum aestivum), read-out: Visual Growth Reduction (%) 14 Days After Application, TRZAS
# [8] = Zea mays, maize, corn (Zea mays), read-out: Visual Growth Reduction (%) 14 Days After Application, ZEAMX
# [9] = Abutilon theophrasti, velvetleaf (Abutilon theophrasti), read-out: Visual Growth Reduction (%) 14 Days After Application, ABUTH
# [10] = Amaranthus retroflexus, redroot pigweed (Amaranthus retroflexus), read-out: Visual Growth Reduction (%) 14 Days After Application, AMARE
# [11] = Brassica napus, oilseed rape, canola (Brassica napus), read-out: Visual Growth Reduction (%) 14 Days After Application, BRSNN
# [12] = Chenopodium album, lambsquarters (Chenopodium album), read-out: Visual Growth Reduction (%) 14 Days After Application, CHEAL
# [13] = Euphorbia heterophylla, wild poinsettia (Euphorbia heterophylla), read-out: Visual Growth Reduction (%) 14 Days After Application, EPHHL
# [14] = Helianthus annuus, sunflower (Helianthus annuus), read-out: Visual Growth Reduction (%) 14 Days After Application, HELAN
SMILES,"pest or weed control at 35 g/ha [1, 3] [%]","pest or weed control at 70 g/ha [1, 3] [%]","pest or weed control at 140 g/ha [1, 3] [%]","pest or weed control at 35 g/ha [1, 4] [%]","pest or weed control at 70 g/ha [1, 4] [%]","pest or weed control at 140 g/ha [1, 4] [%]","pest or weed control at 35 g/ha [1, 5] [%]","pest or weed control at 70 g/ha [1, 5] [%]","pest or weed control at 140 g/ha [1, 5] [%]","pest or weed control at 35 g/ha [1, 6] [%]","pest or weed control at 70 g/ha [1, 6] [%]","pest or weed control at 140 g/ha [1, 6] [%]","pest or weed control at 35 g/ha [1, 7] [%]","pest or weed control at 70 g/ha [1, 7] [%]","pest or weed control at 140 g/ha [1, 7] [%]","pest or weed control at 35 g/ha [1, 8] [%]","pest or weed control at 70 g/ha [1, 8] [%]","pest or weed control at 140 g/ha [1, 8] [%]","pest or weed control at 35 g/ha [2, 9] [%]","pest or weed control at 70 g/ha [2, 9] [%]",also measured
COC(=O)c1nc(-c2cc3[nH]ccc3cc2F)cc(N)c1Cl [Compound 1.25],0 to 29,0 to 29,0 to 29,0 to 29,0 to 29,0 to 29,0 to 29,0 to 29,0 to 29,0 to 29,0 to 29,0 to 29,0 to 29,0 to 29,0 to 29,0 to 29,0 to 29,0 to 29,0 to 29,0 to 29,"pest or weed control at 140 g/ha [2, 9]: 30 to 44%; pest or weed control at 35 g/ha [2, 10]: 75 to 84%; pest or weed control at 70 g/ha [2, 10]: 85 to 94%; pest or weed control at 140 g/ha [2, 10]: 95 to 100%; pest or weed control at 35 g/ha [2, 11]: 60 to 74%; pest or weed control at 70 g/ha [2, 11]: 75 to 84%; pest or weed control at 140 g/ha [2, 11]: 85 to 94%; pest or weed control at 35 g/ha [2, 12]: 0 to 29%; pest or weed control at 70 g/ha [2, 12]: 60 to 74%; pest or weed control at 140 g/ha [2, 12]: 60 to 74%; pest or weed control at 35 g/ha [2, 13]: 0 to 29%; pest or weed control at 70 g/ha [2, 13]: 0 to 29%; pest or weed control at 140 g/ha [2, 13]: 30 to 44%; pest or weed control at 35 g/ha [2, 14]: 0 to 29%; pest or weed control at 70 g/ha [2, 14]: 0 to 29%; pest or weed control at 140 g/ha [2, 14]: 0 to 29%"
"COC(=O)c1nc(-c2ccc3cc[nH]c3c2F)cc(N)c1Cl [Compound 1.23, Methyl 4-amino-3-chloro-6-(7-fluoro-1H-indol-6-yl)picolinate]",0 to 29,0 to 29,0 to 29,0 to 29,0 to 29,60 to 74,0 to 29,0 to 29,0 to 29,0 to 29,0 to 29,60 to 74,0 to 29,0 to 29,30 to 44,0 to 29,0 to 29,0 to 29,95 to 100,95 to 100,"pest or weed control at 140 g/ha [2, 9]: 95 to 100%; pest or weed control at 35 g/ha [2, 10]: 95 to 100%; pest or weed control at 70 g/ha [2, 10]: 95 to 100%; pest or weed control at 140 g/ha [2, 10]: 95 to 100%; pest or weed control at 35 g/ha [2, 11]: 60 to 74%; pest or weed control at 70 g/ha [2, 11]: 75 to 84%; pest or weed control at 140 g/ha [2, 11]: 85 to 94%; pest or weed control at 35 g/ha [2, 12]: 95 to 100%; pest or weed control at 70 g/ha [2, 12]: 95 to 100%; pest or weed control at 140 g/ha [2, 12]: 95 to 100%; pest or weed control at 35 g/ha [2, 13]: 95 to 100%; pest or weed control at 70 g/ha [2, 13]: 95 to 100%; pest or weed control at 140 g/ha [2, 13]: 95 to 100%; pest or weed control at 35 g/ha [2, 14]: 60 to 74%; pest or weed control at 70 g/ha [2, 14]: 75 to 84%; pest or weed control at 140 g/ha [2, 14]: 85 to 94%"
